Results from ChEMBL document CHEMBL1127373 (J Med Chem, 1994).

Molecular target: Neuronal acetylcholine receptor
Assay: Tested for the binding affinity against neuronal nicotinic acetylcholine receptors from whole rat brain

Structure (SMILES) | Ki [nM]
CC[C@H]1C[C@@H](c2cccnc2)N(C)C1 | 50.2
C[C@H]1CC[C@@H](c2cccnc2)N1C | 34.9
CN1C[C@@H](CF)C[C@H]1c1cccnc1 | 11.1
CN1[C@H](c2ccccc2)CC[C@H]1c1cccnc1 | 3350
CN1C[C@@H](O)C[C@H]1c1cccnc1 | 27.6
C[C@@H]1CC[C@@H](c2cccnc2)N1C | 1210
CN1C[C@@H](CO)C[C@H]1c1cccnc1 | 158
CN1CCC(CF)[C@H]1c1cccnc1 (some centres not stated) | 98.5
COCC1CCN(C)[C@@H]1c1cccnc1 (some centres not stated) | 2030
CSC[C@H]1C[C@@H](c2cccnc2)N(C)C1 | 493
CN1C[C@@H](OS(C)(=O)=O)C[C@H]1c1cccnc1 | 364
COC[C@H]1C[C@@H](c2cccnc2)N(C)C1 | 510
CN1C[C@H](C#N)C[C@H]1c1cccnc1 | 82
CCCC[C@@H]1CC[C@@H](c2cccnc2)N1C | 1380
CN1CCC(CO)[C@H]1c1cccnc1 (some centres not stated) | 619
CO[C@H]1C[C@@H](c2cccnc2)N(C)C1 | 36.6
CN1C[C@@H](CC#N)C[C@H]1c1cccnc1 | 52
CC1CN(C)[C@H](c2cccnc2)C1C (some centres not stated) | 96.4
CC(=O)O[C@H]1C[C@@H](c2cccnc2)N(C)C1 | 103
CN1C[C@@H](Cc2ccccc2)C[C@H]1c1cccnc1 | 119
CN1C[C@H](CO)C[C@H]1c1cccnc1 | 294
CN1[C@@H](c2ccccc2)CC[C@H]1c1cccnc1 | 1240
